Where “and” joins values, the source holds several entries; their conditions need not be identical. Identical values can stand only once. Each block holds one compound with its values, some of them ahead of it.
System: 648629-189-R-J1-PDC complex spheroids viability
Experiment: Anticancer human tumor 648629-189-R-J1-PDC patient-derived bladder carcinoma cell line growth inhibition [CLK]
Settings: for viability, T/C: stronger effect = lower value
Method in brief: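 Patient-derived tumor cells grown as complex spheroids with HUVEC endothelial cells and mesenchymal stem cells, treated with drug combinations. Concentrations descend in half-log steps from near clinical Cmax, or from 10 microM if Cmax unknown.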
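For viability, T/C in this document: drug exposure lasted seven days before viability readout; 100% = DMSO vehicle control wells.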

IC50 (curve of first compound, second compound 0.0316 µM): > 10000 nM | IC50 (curve of first compound, second compound 0.1 µM): > 10000 nM | IC50 (curve of first compound, second compound 0.316 µM): < 31.6 nM | IC50 (curve of first compound, second compound 1 µM): < 31.6 nM | IC50 (curve of first compound, second compound 3.16 µM): < 31.6 nM | IC50 (curve of first compound, second compound 10 µM): < 31.6 nM
Compound: O=C(c1cc(Cc2n[nH]c(=O)c3ccccc23)ccc1F)N1CCN(C(=O)C2CC2)CC1 + CNC(=O)c1ccc(Nc2nc(OC3CCCC3)c3c(-c4ccc5nc(C)oc5c4)c[nH]c3n2)c(OC)c1
viability, T/C (second compound 0.0316 µM, first compound 0.0316 µM): 92.3% | viability, T/C (second compound 0.0316 µM, first compound 0.1 µM): 101% | viability, T/C (second compound 0.0316 µM, first compound 0.316 µM): 103% | viability, T/C (second compound 0.0316 µM, first compound 1 µM): 106% | viability, T/C (second compound 0.0316 µM, first compound 3.16 µM): 83.3% | viability, T/C (second compound 0.0316 µM, first compound 10 µM): 74.9% | viability, T/C (second compound 0.1 µM, first compound 0.0316 µM): 93.6% | viability, T/C (second compound 0.1 µM, first compound 0.1 µM): 95.1% | viability, T/C (second compound 0.1 µM, first compound 0.316 µM): 89.3% | viability, T/C (second compound 0.1 µM, first compound 1 µM): 86.9% | viability, T/C (second compound 0.1 µM, first compound 3.16 µM): 82.9% | viability, T/C (second compound 0.1 µM, first compound 10 µM): 70.8% | viability, T/C (second compound 0.316 µM, first compound 0.0316 µM): 26.9% | viability, T/C (second compound 0.316 µM, first compound 0.1 µM): 29% | viability, T/C (second compound 0.316 µM, first compound 0.316 µM): 27.1% | viability, T/C (second compound 0.316 µM, first compound 1 µM): 29.1% | viability, T/C (second compound 0.316 µM, first compound 3.16 µM): 28.7% | viability, T/C (second compound 0.316 µM, first compound 10 µM): 27.4% | viability, T/C (second compound 1 µM, first compound 0.0316 µM): 18.8% | viability, T/C (second compound 1 µM, first compound 0.1 µM): 17.3% | viability, T/C (second compound 1 µM, first compound 0.316 µM): 20.1% | viability, T/C (second compound 1 µM, first compound 1 µM): 17.2% | viability, T/C (second compound 1 µM, first compound 3.16 µM): 17.6% | viability, T/C (second compound 1 µM, first compound 10 µM): 18.6% | viability, T/C (second compound 3.16 µM, first compound 0.0316 µM): 15.9% | viability, T/C (second compound 3.16 µM, first compound 0.1 µM): 18.9% | viability, T/C (second compound 3.16 µM, first compound 0.316 µM): 19% | viability, T/C (second compound 3.16 µM, first compound 1 µM): 20.3% | viability, T/C (second compound 3.16 µM, first compound 3.16 µM): 19% | viability, T/C (second compound 3.16 µM, first compound 10 µM): 19.2% | viability, T/C (second compound 10 µM, first compound 0.0316 µM): 23.8% | viability, T/C (second compound 10 µM, first compound 0.1 µM): 21.7% | viability, T/C (second compound 10 µM, first compound 0.316 µM): 22% | viability, T/C (second compound 10 µM, first compound 1 µM): 19% | viability, T/C (second compound 10 µM, first compound 3.16 µM): 20.2% | viability, T/C (second compound 10 µM, first compound 10 µM): 21.1%

IC50 (curve of compound): < 31.6 nM
Compound: COc1cccc2c1C(=O)c1c(O)c3c(c(O)c1C2=O)CC(O)(C(=O)CO)CC3OC1CC(N)C(O)C(C)O1 (centres undefined)
viability, T/C (compound 0.0316 µM): 32.3% and 23% | viability, T/C (compound 0.1 µM): 16.2% | viability, T/C (compound 0.316 µM): 7.93% and 6.42% | viability, T/C (compound 1 µM): 0.61% and 0.54% | viability, T/C (compound 3.16 µM): 0.12% and 0.15% | viability, T/C (compound 10 µM): 0.13% and 0.14%

Reference: PubChem BioAssay AID2060602 (Molecular Pharmacology Branch, DTP, NCI, 2025)
